Results published in patent publication US12226384B2, “Peramivir solution type inhalant and preparation method therefor” (priority 2019, dated 2025).
Read-outs that look alike come from different tables or passages of the source.

Key:
[1] = cited from earlier work
[2] = at respective timing
[3] = Equilibrium solubility of peramivir in saline solutions of different pH; format: physicochemical; design: unit not given here; details: 25° C.
Method: An excess amount of bulk peramivir was drawn and placed into a 25 ml volumetric flask, and 0.7% salt solution was applied to bring the volume to scale; the diluted solution was placed on a shaker and shaken for 24 h (25° C., 75 rpm), and then dilute hydrochloric acid (5%, V/V) was applied to regulate the pH to 4, 4.5, 5.0, and 5.5, respectively; the pH-regulated solutions were placed for another 48 h, and then filtered with a 0.45 μm filter membrane; the filtrates were diluted 250-fold with deionized water; the peramivir contents in the samples were determined by the HPLC method in peramivir standard.

**Q.** With `CCC(CC)[C@H](NC(C)=O)[C@@H]1[C@H](O)[C@@H](C(=O)O)C[C@H]1NC(=N)N` [Peramivir, (−)-(1S, 2S, 3R, 4R)-2-hydroxy-3-[(1S)-1-acetamido-2-ethyl]butyl-4-guanidinocyclopenta-1-carbo xylic acid] as the compound, how does the “stability of peramivir APIs” value ([1]; 48 h at 100° C.) read?
**A.** Its value is “stable”.

**Q.** And the “stability of peramivir APIs” value ([1]; acidic conditions)?
**A.** Its value is “unstable”.

**Q.** And the “stability of peramivir APIs” value ([1]; alkaline and neutral environments)?
**A.** Its value is “good stability”.

**Q.** What about the “stability of peramivir APIs” value ([1]; light irradiation for 10 days) of the same compound?
**A.** The value was “good stability”.

**Q.** What about the “lung tissue concentration, aerosol inhalation relative to intravenous administration” value ([2]; aerosol 10 mg/kg vs intravenous 10 mg/kg) of the same compound?
**A.** The value was 2.02˜41.58 times.

**Q.** What about the “lung tissue concentration, aerosol inhalation relative to intravenous administration” value ([2]; aerosol low dose 2.5 mg/kg vs intravenous 10 mg/kg) of the same compound?
**A.** The value was 1.07˜4.58 times.

**Q.** What about the “lung tissue concentration, aerosol inhalation relative to intravenous administration” value ([2]; aerosol medium dose 5 mg/kg vs intravenous 10 mg/kg) of the same compound?
**A.** The value was 1.58˜5.31 times.

**Q.** And the “Equilibrium Solubility of Peramivir in Saline Solutions” value (from here on “Equilibrium Solubility of Peramivir”) ([3]; pH = 4.0, 0.7% salt solution)?
**A.** Its value is 33.93 ± 0.51.

**Q.** What about the “Equilibrium Solubility of Peramivir” value ([3]; pH = 4.5, 0.7% salt solution) of the same compound?
**A.** The value was 26.53 ± 0.14.

**Q.** What about the “Equilibrium Solubility of Peramivir” value ([3]; pH = 5.0, 0.7% salt solution) of the same compound?
**A.** Its value is 22.84 ± 0.39.

**Q.** What about the “Equilibrium Solubility of Peramivir” value ([3]; pH = 5.5, 0.7% salt solution) of the same compound?
**A.** Its value is 22.04 ± 0.21.

**Q.** What about the “Equilibrium Solubility of Peramivir” value ([3]; pH was not regulated with 0.7% salt solution (pH = 6.86)) of the same compound?
**A.** The value was 21.48 ± 0.31.
